Test results published in PubChem BioAssay (NCI).
Several values for one entry are separate records, joined by “and”; a condition that tells them apart may be missing. Equal entries are not always repeated.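 Five compound concentrations were applied to cells in 96-well plates for 48 hours; endpoints were derived by simple linear interpolation of the resulting dose-response curve. Abbreviation: GI50, concentration required for 50% inhibition of growth. The concentration for full growth arrest is given as TGI.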

How the values were obtained:
Assay in all cases: inhibition of tumour cell growth, NCI panel, 48 h
CCRF-CEM leukemia = test system: CCRF-CEM leukemia
HCT-15 colon = test system: HCT-15 colon
OVCAR-4 ovarian = test system: OVCAR-4 ovarian
OVCAR-8 ovarian = test system: OVCAR-8 ovarian
SF-539 CNS = test system: SF-539 CNS
SK-MEL-5 melanoma = test system: SK-MEL-5 melanoma
SK-OV-3 ovarian = test system: SK-OV-3 ovarian
SNB-75 CNS = test system: SNB-75 CNS
SW-620 colon = test system: SW-620 colon
UACC-62 melanoma = test system: UACC-62 melanoma

Structure (SMILES)	GI50 (CCRF-CEM leukemia)	TGI (CCRF-CEM leukemia)	GI50 (HCT-15 colon)	TGI (HCT-15 colon)	GI50 (OVCAR-4 ovarian)	TGI (OVCAR-4 ovarian)	GI50 (OVCAR-8 ovarian)	TGI (OVCAR-8 ovarian)	GI50 (SF-539 CNS)	TGI (SF-539 CNS)	GI50 (SK-MEL-5 melanoma)	TGI (SK-MEL-5 melanoma)	GI50 (SK-OV-3 ovarian)	TGI (SK-OV-3 ovarian)	GI50 (SNB-75 CNS)	TGI (SNB-75 CNS)	GI50 (SW-620 colon)	TGI (SW-620 colon)	GI50 (UACC-62 melanoma)	TGI (UACC-62 melanoma)
Cc1c(Br)cccc1NC(=O)c1sc2nc3c(cc2c1N)CN(Cc1ccccc1)CC3	0.182 µM	> 50 µM	0.165 µM	> 50 µM	0.523 µM	8.89 µM	0.298 µM	> 50 µM	0.158 µM	0.858 µM	0.201 µM	8.18 µM	0.294 µM	22.7 µM	0.28 µM	17.1 µM	0.164 µM	7.15 µM	0.372 µM	> 50 µM
CC(=O)OC1CC[C@@]2(C)C(CC(OC3OC(CO)C(O)C(O)C3O)[C@]3(C)C2CCC24CC23CC[C@H]4C(C)CC(O)[C@@H](O)C(C)(C)O)C1(C)C (stereo partly specified)		25.7 µM		> 50 µM		> 50 µM		> 50 µM		19.1 µM		15.9 µM		> 50 µM		32 µM		45.1 µM		16.6 µM
CCCCCCCC(=O)SCC/C=C/[C@@H]1CC(=O)NCc2cccc(n2)CN(Cc2ccc(Cl)cc2)CC(=O)N[C@@H](C(C)C)C(=O)O1	4.56 µM	> 100 µM	20.1 µM	> 100 µM	21.7 µM	> 100 µM	9.1 µM	> 100 µM	16.3 µM	> 100 µM	5.26 µM	17.6 µM	6.41 µM	42.7 µM	5.74 µM	> 100 µM	18 µM	> 100 µM	5.85 µM	26.5 µM
COc1ccc2c(c1)Cc1cc(N=[N+]([O-])c3ccc4c(c3)Cc3cc(OC)ccc3-4)ccc1-2		> 100 µM		> 100 µM		> 100 µM		> 100 µM		28.5 µM		42.8 µM		> 100 µM		> 100 µM		> 100 µM		85.4 µM
Nc1nc(Cl)cc2c1ncn2C1OC(CO)C(O)C1O (stereo unspecified)	> 100 µM	> 100 µM	> 100 µM	> 100 µM	> 100 µM	> 100 µM	> 100 µM	> 100 µM	> 100 µM	> 100 µM	> 100 µM	> 100 µM	> 100 µM	> 100 µM	> 100 µM	> 100 µM	> 100 µM	> 100 µM	> 100 µM	> 100 µM
C[N+](C)(C)CC(=O)NC(=O)N/N=C\C(CC#N)CN(Cc1ccccc1)Cc1ccccc1 (stereo unspecified)		> 100 µM		> 100 µM		> 100 µM		> 100 µM		> 100 µM		> 100 µM		> 100 µM		> 100 µM		> 100 µM		> 100 µM
CN1CCN(c2nc(NCCNc3ccnc4cc(Cl)ccc34)c3ccccc3n2)CC1	0.527 µM	4.84 µM	3.02 µM	10.8 µM	2.15 µM	6.26 µM	2.12 µM	5.75 µM	1.77 µM	3.34 µM	1.72 µM	3.12 µM	3.18 µM	11.7 µM	1.84 µM	4.96 µM	0.391 µM	13.3 µM	1.82 µM	3.39 µM
COc1ccc(/C(C#N)=C/c2nc3c(N4CCOCC4)nc(Cl)nc3n2C)cc1OC	< 0.01 µM	0.146 µM	< 0.01 µM	1.62 µM	< 0.0105 µM	1.93 µM	< 0.01 µM	3.97 µM	< 0.01 µM	< 0.01 µM	< 0.0108 µM	0.0347 µM	< 0.01 µM	5.52 µM	< 0.01 µM	< 0.01 µM	< 0.01 µM	1.63 µM	< 0.01 µM	1.68 µM
COc1ccc(NC(=O)CC(=O)n2nc(-c3ccccc3)c(N=Nc3ccc(C)cc3)c2-c2ccccc2)cc1		> 100 µM		> 100 µM		53.8 µM		63.3 µM		44 µM		> 78.1 µM		40 µM		41.2 µM		> 100 µM		49.5 µM
COC1=CC(=O)c2c(O)c3c(c(O)c2C1=O)CC(C)(O)OC3 (stereo unspecified)		17.4 µM		9.08 µM		4.51 µM		8.65 µM		9.66 µM		2.41 µM		58.9 µM		> 67.6 µM		12.7 µM		7.35 µM
COc1cc(Oc2cnc3cc(N)cc(N)c3n2)cc(OC)c1OC	50.7 µM	> 100 µM	50 µM	> 100 µM	37.3 µM	> 100 µM	58.8 µM	> 100 µM	46.2 µM	> 100 µM	39.5 µM	> 100 µM	91.2 µM	> 100 µM	19.2 µM	72.4 µM	44.3 µM	> 100 µM	35.4 µM	> 100 µM
O=c1cc(N2CCOCC2)oc2c(-c3ccccc3)cccc12	8.59 µM	> 100 µM	4.98 µM	> 100 µM and 48.7 µM	3.5 µM	> 61.9 µM and 75.5 µM		> 80.1 µM and 29.1 µM	5.57 µM	31.6 µM and 29.8 µM	9.35 µM	22 µM	6.92 µM	62.4 µM and 60.9 µM	1.91 µM	14.6 µM and 5.97 µM	15.5 µM	> 100 µM	3.19 µM	18.8 µM and 21.9 µM
Nc1ncnc2c1ncn2C1OC(CO)C(O)C1O (stereo unspecified)	> 100 µM	> 284 µM		> 100 µM and > 450 µM and 62 µM		> 450 µM	32.9 µM and 79.3 µM and 12.6 µM	> 401 µM	31.6 µM	> 450 µM	> 100 µM and > 450 µM and 46.2 µM	> 450 µM	> 100 µM and 296 µM and 34 µM	> 450 µM	11.6 µM	> 100 µM and 331 µM and 38.2 µM	19.3 µM	> 450 µM	> 100 µM and 247 µM and 27.2 µM	> 450 µM
Cc1cc(C)c2nc(Nc3nc(C)c(C)c(=O)[nH]3)nc(C)c2c1	2.72 µM	8.61 µM	2.94 µM	14.5 µM	3.27 µM	15.6 µM	2.83 µM	10.7 µM	2.54 µM	10.3 µM	3.06 µM	11.8 µM	2.5 µM	10.3 µM	2.9 µM	13.6 µM	3.12 µM	15.5 µM	2.08 µM	5.5 µM
CC(C)=CCNc1ncnc2c1ncn2C1OC(COP(=O)(O)O)C(O)C1O (stereo unspecified)	3.32 µM	> 100 µM	2.72 µM	> 64.1 µM	5.01 µM	34.3 µM	1.6 µM	3.64 µM	4 µM	38.9 µM	> 73.7 µM	> 100 µM	4.77 µM	> 100 µM	2.06 µM	34.1 µM	3.89 µM	> 100 µM	9.03 µM	> 100 µM
N#CC1=C(N)Oc2c(sc3c(F)cccc23)C1c1ccc(Cl)cc1 (stereo unspecified)	2.99 µM	12.1 µM	2.75 µM	13.1 µM	4.21 µM	19.6 µM	4.4 µM	18.7 µM	2.05 µM	5.59 µM	3.68 µM	15.1 µM	5.16 µM	20 µM	2.27 µM	10 µM	3.47 µM	16.3 µM	3.26 µM	17.5 µM
N=C(N)c1ccc(-c2ccc(-c3ccco3)o2)cc1	3.11 µM	15.2 µM	2.58 µM	7.22 µM	6.42 µM	24.1 µM	8.22 µM	30.7 µM	8.96 µM	21.5 µM	2.67 µM	9.76 µM	9.21 µM	21.2 µM	10.7 µM	23.2 µM	1.92 µM	4.09 µM	1.82 µM	3.9 µM
COC(=O)c1ccc2n[se]nc2c1		> 100 µM		> 100 µM		> 100 µM		> 100 µM		> 100 µM		> 100 µM		> 100 µM		> 100 µM		> 100 µM		> 100 µM
O=c1c2ccccc2oc2nccnc12		> 100 µM		> 100 µM		> 100 µM		> 100 µM		> 100 µM		> 100 µM		> 100 µM		> 100 µM		> 100 µM		> 100 µM
Cc1ccc(NC(=O)C(=O)C2C(=O)C3=C(CC2(C)C)NC2C=CC=CC2S3)c(C)c1 (stereo unspecified)		> 100 µM		> 100 µM		> 100 µM		> 100 µM		> 100 µM		> 100 µM		> 100 µM		> 100 µM		> 100 µM		> 100 µM
CCSc1sc(-c2ccc(C)cc2)nc1[P+](c1ccccc1)(c1ccccc1)c1ccccc1	0.377 µM	2.14 µM	0.315 µM	1.18 µM	0.275 µM	1.05 µM	0.313 µM	1.89 µM	0.394 µM	1.53 µM	0.174 µM	0.321 µM	0.262 µM	0.898 µM	0.192 µM	0.802 µM	0.332 µM	1.34 µM	0.292 µM	1.24 µM
COc1cc2c(cc1OC)[C@@H]1[C@H](C2=O)c2ccc([N+](=O)[O-])cc2C(=O)N1CCCBr	< 0.01 µM		0.369 µM	9.27 µM	2.4 µM	> 100 µM	0.0169 µM	2.04 µM	0.387 µM	2.29 µM	< 0.01 µM	0.123 µM	1.32 µM	> 100 µM	0.611 µM	12.5 µM	0.213 µM	> 100 µM	< 0.046 µM	1.16 µM
O=C1/C(=C/c2ccc(F)cc2)CN(Cc2cn(CCNc3ccnc4cc(Cl)ccc34)nn2)C/C1=C\c1ccc(F)cc1	1.05 µM	4.65 µM	1.4 µM	3.21 µM	1.81 µM	8.75 µM	1.78 µM	5.24 µM	1.83 µM	3.27 µM	1.7 µM	3.06 µM	1.6 µM	3.02 µM	1.6 µM	3.62 µM	0.366 µM	1.39 µM	1.56 µM	2.95 µM
NS(=O)(=O)OC[C@H]1O[C@@H](n2cnc3c(N[C@H]4CCc5ccccc54)ncnc32)[C@H](O)[C@@H]1O	0.0419 µM	> 100 µM	0.857 µM	7.14 µM	0.243 µM	0.626 µM	0.0865 µM	1.02 µM	0.0351 µM	0.117 µM	0.0369 µM	0.151 µM	0.234 µM	0.644 µM	0.358 µM	1 µM	0.245 µM	5.82 µM	0.0451 µM	0.374 µM
CCCCCc1c(C)[nH]c(/C=C2\N=C(c3ccc[nH]3)C=C2Oc2ccc(OC)cc2)c1C	0.0257 µM	> 100 µM	0.113 µM	0.759 µM	0.15 µM and 0.0221 µM	2.02 µM	0.18 µM and 0.0412 µM	1.12 µM and 0.207 µM	0.156 µM and 0.0431 µM	0.551 µM and 0.212 µM	0.0844 µM and 0.0187 µM	0.217 µM and 0.0466 µM	0.392 µM and 0.141 µM	2.25 µM and 1.39 µM	0.204 µM and 0.0328 µM	0.559 µM and 0.316 µM	0.0587 µM and 0.0252 µM	1.53 µM and 0.518 µM	0.112 µM and 0.0271 µM	0.272 µM and 0.0725 µM
COC(=O)c1nc(N)[nH]c(=O)c1-c1ccc(Cl)cc1		> 100 µM		> 100 µM		> 100 µM		> 100 µM		> 100 µM		> 100 µM		> 100 µM		> 100 µM		> 100 µM		> 100 µM
COc1ccc(/C=N\N2C(=O)Cc3ccccc32)cc1		> 100 µM		> 100 µM		> 100 µM		> 100 µM		> 100 µM		> 100 µM		> 100 µM		62 µM		> 100 µM		> 100 µM
COc1cc2c3c(c1OC)C1(C=CC(=O)C=C1)CC3N(C(=O)OC(C)(C)C(Cl)(Cl)Cl)CC2 (stereo unspecified)		87.7 µM		23.6 µM		40.3 µM		31.5 µM		30.4 µM		20.7 µM		96.9 µM		34.5 µM		43.1 µM		28.4 µM
Clc1cc(Cl)c2n[se]nc2c1		> 100 µM		> 100 µM		> 100 µM		> 100 µM		> 100 µM		> 100 µM		> 100 µM		> 100 µM		> 100 µM		> 100 µM
